Source: patent publication US20170015654A1, “PYRIDAZINE COMPOUND” (TAKEDA PHARMACEUTICAL COMPANY LIMITED, priority 2014, published 2017)

Legend:
human SCD1 = molecular target: T1, human SCD1 (Homo sapiens, UniProt O00767); assay: Measurement of human SCD1 binding activity (inhibition of binding of radiolabeled compound Z); conditions: 1 μM compound; human SCD1-expressing membrane fraction; compound Z radioligand; read-out: Rate of inhibition of SCD1 binding (%) at compound concentration of 1 μM
T1 construct: made in house; host or cells: High Five insect cells (baculovirus, pFastBac1/hSCD1); membrane fraction
T1 sequence (O00767 1-359): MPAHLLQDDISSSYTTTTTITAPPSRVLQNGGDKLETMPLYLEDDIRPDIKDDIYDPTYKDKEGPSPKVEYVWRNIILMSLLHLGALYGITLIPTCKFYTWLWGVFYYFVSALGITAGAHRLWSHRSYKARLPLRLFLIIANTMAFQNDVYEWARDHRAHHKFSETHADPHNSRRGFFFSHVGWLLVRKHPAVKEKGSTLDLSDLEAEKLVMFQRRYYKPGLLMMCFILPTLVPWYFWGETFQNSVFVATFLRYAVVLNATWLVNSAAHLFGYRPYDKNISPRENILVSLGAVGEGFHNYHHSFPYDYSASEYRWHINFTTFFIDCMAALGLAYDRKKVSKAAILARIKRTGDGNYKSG
Description: Measurement of Human SCD1 Binding Activity Using (5-(6-(1′H-spiro[1-benzofuran-3,3′-pyrrolidin]-1′-yl)pyridazin-3-yl)-1,2,4-oxadiazol-3-yl) [^3H2]methanol
The SCD1 binding activity of the compound of the present invention was measured as the activity of inhibiting the binding of (5-(6-(1′H-spiro[1-benzofuran-3,3′-pyrrolidin]-1′-yl)pyridazin-3-yl)-1,2,4-oxadiazol-3-yl)[^3H2]methanol (radiolabeled form of the compound disclosed as a SCD inhibitor in Example 157 of International Publication No. WO2008/096746; in the present specification, also referred to as compound Z) to SCD1.
Specifically, first, Human liver cDNA library (Takara Bio Inc.) was cloned as a template by PCR using KOD-Plus-(Toyobo Co., Ltd.) DNA polymerase. The primers used were 5′-[…]-3′ and 5′-[…]-3′. The amplification fragment was temporarily transferred to a pCR Blunt II-TOPO vector using Zero Blunt PCR Cloning Kit (Life Technologies, Inc.) to obtain pCR Blunt II-TOPO/hSCD1. A fragment obtained by the cleavage of this pCR Blunt II-TOPO/hSCD1 with BamHI and NotI was transferred to pFastBac1 (Life Technologies, Inc.) to construct a recombinant plasmid pFastBac1/hSCD1 for hSCD1 insect cell expression systems.
Baculovirus was prepared using the pFastBac1/hSCD1 plasmid according to the protocol of Bac-to-Bac Baculovirus Expression System (Life Technologies, Inc.).
The insect cells for use in expression were High Five cells (Life Technologies, Inc.) subcultured in a PSFM-J1 medium (Wako Pure Chemical Industries, Ltd.) containing 5% FBS, 10 U/L heparin (Sigma-Aldrich Corp.) and 50 μg/mL gentamicin.
The High Five cells were inoculated at 0.8×10^6 cells/mL and cultured until the following day. When the cell density reached 2.0×10^6 cells/mL, Ammonium Iron(III) Sulfate 12-Water (Wako Pure Chemical Industries, Ltd.) was added thereto at a final concentration of 10 μM. The cells were further infected with the baculovirus and cultured for 3 days.
After the completion of the culture, the culture solution was centrifuged (4° C., 4,000 rpm, […]) and frozen at −80° C. to obtain hSCD1-expressing insect cells. Next, the frozen hSCD1-expressing insect cells were suspended in buffer A (50 mM Tris-HCl (pH 7.5) containing 250 mM sucrose and cOmplete Protease Inhibitor Cocktail Tablets (F. Hoffmann-La Roche, Ltd.)), and the cells were disrupted (4° C., 20,000 rpm, 20 sec×2) using a POLYTORON homogenizer (Central Scientific Commerce, Inc.).
This cell lysate was centrifuged (4° C., 850×g, […]), and the supernatant was further ultracentrifuged (4° C., 186,000×g, 60 min). The supernatant was discarded, and buffer A was added to the precipitate. The resultant was suspended using POLYTRON (4° C., 10,000 rpm, 10 sec×2) and passed through a 40-μm cell strainer to prepare a human SCD1-expressing membrane fraction (hereinafter, also simply referred to as human SCD1). The protein concentration was measured using BCA Protein Assay Kit (Thermo Fisher Scientific, Inc.) with BSA used as standards.
The obtained primary dilution was diluted 250-fold by the addition of an assay buffer (10 mM Tris-HCl, pH 7.5, 100 mM KCl, 10 mM NaF, 3 mM MgCl2, 0.005% Tween 20, 1 mM GSH) to obtain a secondary dilution. The human SCD1 diluted using an assay buffer was dispensed at 100 μL/well (containing 0.2 μg of the protein) to a polypropylene 96-well plate, and then, the secondary dilution of the compound was added thereto at 50 μL/well. Further, a solution of 12 nM compound Z diluted with an assay buffer was added thereto at 50 μL/well, and the plate was left standing at room temperature for 2 hours. Then, the contents in each well were transferred to each well of UniFilter-96 GF/C PEI coated plate (PerkinElmer, Inc.) wetted with a washing buffer, followed by washing five times with a washing buffer (10 mM Tris-HCl, pH 7.5). After drying of the filter plate, Microscint-O (PerkinElmer, Inc.) was added thereto at 25 μL/well, and the obtained radioactivity was measured using TopCount (PerkinElmer, Inc.). […]

[1] = system: human large intestine cancer cell line HCT116; assay: Antitumor effect on human large intestine cancer cell line HCT116 cancer-bearing mice; format: in vivo, mouse; conditions: 10 mg/kg, 2 doses per day, orally for 14 days; HCT116 cancer-bearing BALB/c nude mice; tumor growth vs control group
Description: The compound of the present invention was evaluated for its antitumor effect on human large intestine cancer cell line HCT116 cancer-bearing mice by the following method.
The human large intestine cancer cell line HCT116 (purchased from ATCC (American Type Culture Collection)) was transplanted to each 6-week-old BALB/c female nude mouse (BALB/cA Jcl nu/nu: CLEA Japan Inc.) by the subcutaneous injection of 1.0×10^6 cells. After the transplantation, successfully engrafted tumor was observed, and the tumor size was measured 10 to 14 days after the transplantation. The tumor volume was calculated according to the following expression:
Tumor volume=Major axis×Minor axis×Minor axis×(½)
Individuals in which the volume of the engrafted tumor reached approximately 150 mm^3 were selected and used in the experiment as groups each involving 5 to 8 individuals. Each test compound was suspended in a 0.5% methylcellulose solution and orally administered to each individual for 14 days using the dose and the number of doses shown in the table below. Finally, in order to measure drug effects, the tumor volume was calculated from the tumor sizes at the day before the start of the administration and at the final day of the administration, and tumor growth in the test compound administration group compared with a control administration group given only a 0.5% methylcellulose solution was calculated as T/C according to the following expression:
T/C (%)=(Tumor volume after the completion of the administration of the test compound administration group−Tumor volume at the day before the start of the administration of the test compound administration group)/(Tumor volume after the completion of the administration of the control administration group−Tumor volume at the day before the start of the administration of the control administration group)×100

In the case of `N#CC1(c2ccc(C(F)(F)F)cc2)CCN(c2ccc(-c3nc(CO)no3)nn2)CC1` [Example 38, 1-(6-(3-(Hydroxymethyl)-1,2,4-oxadiazol-5-yl)pyridazin-3-yl)-4-(4-(trifluoromethyl)phenyl)piperidine-4-carbonitrile], the inhibition at 1 µM (human SCD1) is reported as 95% and the “T/C (%)” value [1] is reported as 85.8%.
